Reference: ChEMBL document CHEMBL6134863, “Novel Mitochondria-Targeted Asymmetric Heptamethine Cyanine Dye for Cancer Targeted NIR Imaging and Potent Necrosis and Senescence Induction with Prolonged Retention” (J Med Chem, 2025)
The source made the active and inactive calls. No cut-off for these calls is given here.

Experiments:
[1] = Antioxidant activity of compound in presence of CO3; format: functional
[2] = Antioxidant activity of compound in presence of RSS; format: functional
[3] = Drug uptake in human NCI-H226 cells assessed as increase in red fluorescence intensity at 5 uM incubated for 30 mins by CY7 staining based microscopic analysis; format: ADME, cell-based; details: nci-h226, 0.5 h
[4] = Cytotoxicity against human Primary lung fibroblast assessed as decrease in cell viability up to 5 uM incubated for 24 hrs by CCK-8 assay; format: toxicity, cell-based
[5] = Cytotoxicity against human Primary lung fibroblast assessed as decrease in cell viability up to 10 uM incubated for 24 hrs by CCK-8 assay; format: toxicity, cell-based
[6] = Antioxidant activity of compound in presence of NO2; format: functional
[7] = Drug accumulation in tumor to muscle of BALB/c mouse implanted with mouse 4T1 cells at 0.5 mg/kg, iv measured at 4 to 168 hrs; format: ADME, organism-based; details: in vivo, time 4-168 hrs
[8] = Antioxidant activity of compound in presence of TBHP; format: functional
[9] = Antioxidant activity of compound in presence of ClO-; format: functional
[10] = Antioxidant activity of compound in presence of H2O2-; format: functional
NCI-H250 = test: Antitumor activity against human […] cells xenografted in BALB/c mouse assessed as tumor growth inhibition 0.5 mg/kg, iv measured for 5 days; format: functional, organism-based; details: time 5.0 day
[11] = Drug uptake in human NCI-H226 cells assessed as increase in green fluorescence intensity at 5 uM incubated for 30 mins by F-actin staining staining based microscopic analysis; format: ADME, cell-based; details: nci-h226, 0.5 h
[12] = Photostability of compound in DMSO-H2O incubated for 1 hr irradiated with deuterium lamp by absorbance based analysis; format: physicochemical; details: read-out: Stability
[13] = Antioxidant activity of compound in presence of Fe3+; format: functional
[14] = Drug localization in mitochondria of human NCI-H226 cell by MitoTracker Red based NIR confocal microscopic analysis; format: ADME
[15] = Antioxidant activity of compound in presence of Ca2+; format: functional
[16] = Partition coefficient, logP of compound; format: physicochemical; details: octanol/water
[17] = Antioxidant activity of compound in presence of OH; format: functional
[18] = Antioxidant activity of compound in presence of HCO3-; format: functional
[19] = Antioxidant activity of compound in presence of Br-; format: functional
[20] = Drug uptake in human NCI-H226 cells assessed as increase in fluorescence intensity incubated for 24 hrs by fluorescence based microscopic analysis; format: ADME, cell-based; details: nci-h226, 24 h
[21] = Antioxidant activity of compound in presence of NH4+; format: functional
[22] = Ratio of drug level in tumor to muscle of BALB/c mouse implanted with mouse 4T1 cells at 0.5 mg/kg, iv measured at 12 to 24 hrs; format: ADME, organism-based; details: in vivo, time 12-24 hrs
NIH3T3 = test: Cytotoxicity against mouse 3T3 cells assessed as decrease in cell viability up to 5 uM incubated for 24 hrs by CCK-8 assay; format: toxicity, cell-based; details: nih3t3, 24 h
[23] = Toxicity in BALB/c mouse implanted with mouse 4T1 cells assessed as survival rate at 5 mg/kg, iv measured for 11 days; format: organism-based; details: in vivo, time 11 day
[24] = Antioxidant activity of compound in presence of Cl-; format: functional
[25] = Antioxidant activity of compound in presence of ONOO-; format: functional
[26] = Drug uptake in mouse 4T1 cells assessed as increase in red fluorescence intensity at 5 uM incubated for 30 mins by CY7 staining based microscopic analysis; format: ADME, cell-based; details: 4t1, 0.5 h
NCI-H226 = test: Cytotoxicity against human NCI-H226 assessed as decrease in cell viability up to 10 uM incubated for 24 hrs by CCK-8 assay; format: functional, cell-based
[27] = Drug uptake in mouse 4T1 cells assessed as increase in green fluorescence intensity at 5 uM incubated for 30 mins by F-actin staining staining based microscopic analysis; format: ADME, cell-based; details: 4t1, 0.5 h
[28] = Stability of compound in DMSO-H2O incubated for 1 hr by absorbance based analysis; format: physicochemical
[29] = Antioxidant activity of compound in presence of HCHO; format: functional
[30] = Distribution coefficient, logD of compound; format: physicochemical; details: octanol/water
[31] = Antioxidant activity of compound in presence of Glutathione; format: functional
[32] = Antioxidant activity of compound in presence of HSO3-; format: functional
[33] = Antioxidant activity of compound in presence of RNS; format: functional
4T1 = test: Antitumor activity against mouse 4T1 cells implanted in BALB/c mouse assessed as tumor growth inhibition 5 mg/kg, iv measured for 11 days; format: functional; details: 4T1, 264 h, time 11 day, read-out: TGI
[34] = Drug accumulation in BALB/c mouse tumor xenografted with human NCI-H520 cells assessed as increase in fluorescence intensity at 0.5 mg/kg, iv measured at 96 hrs by imaging based analysis; format: ADME, organism-based, Neoplasm; details: in vivo
[35] = Solubility of compound in DMSO-H2O; format: physicochemical
[36] = Antioxidant activity of compound in presence of ROS; format: functional
[37] = Stability of compound in DMSO-H2O incubated for 150 mins by absorbance based analysis; format: physicochemical; details: 2.5 h
[38] = Drug accumulation in BALB/c mouse tumor implanted with mouse 4T1 cells assessed as increase in fluorescence intensity at 0.5 mg/kg, iv measured at 48 hrs by imaging based analysis; format: ADME, organism-based, Neoplasm; details: in vivo
[39] = Antioxidant activity of compound in presence of SO4; format: functional
[40] = Antioxidant activity of compound in presence of L-Cysteine; format: functional
[41] = Antioxidant activity of compound in presence of […]; format: functional

Compound: CCN1/C(=C/C=C2\CCCC(/C=C/C3=[N+](CCCOc4ccc(C(=O)O)cc4)c4ccccc4C3(C)C)=C2Cl)C(C)(C)c2ccccc21.[Br-]
- Activity [1]: Active
- Activity [2]: Active
- Drug uptake [3]: Active
- Activity [4]: Non-toxic
- Activity [5]: Non-toxic
- Activity [6]: Active
- Drug uptake [7]: Active
- Activity [8]: Active
- Activity [9]: Active
- Activity [10]: Active
- TGI (NCI-H250): Active
- Drug uptake [11]: Active
- remaining at 1 h [12]: 96.9%
- Activity [13]: Active
- Drug uptake [14]: Active
- Activity [15]: Active
- logP [16]: 6.05
- Activity [17]: Active
- Activity [18]: Active
- Activity [19]: Active
- Drug uptake [20]: Active
- Activity [21]: Active
- Ratio [22]: > 5
- Activity (NIH3T3): > 80%
- survival at 264 h [23]: 100%
- Activity [24]: Active
- Activity [25]: Active
- Drug uptake [26]: Active
- Activity (NCI-H226): Active
- Drug uptake [27]: Active
- Stability [28]: Stable
- Activity [29]: Active
- logD [30]: 4.34
- Activity [31]: Active
- Activity [32]: Active
- Activity [33]: Active
- inhibition in vivo at 5 mg/kg (4T1): ~60%
- Drug uptake [34]: Active
- solubility [35]: 170 µg/mL
- Activity [36]: Active
- Stability [37]: Stable
- Drug uptake [38]: Active
- Activity [39]: Active
- Activity [40]: Active
- Activity [41]: Active
